Measured values: US7576091B2, “Thiazolo-, oxazalo and imidazolo-quinazoline compounds capable of inhibiting protein kinases” (Cyclacel Limited, priority 2003, dated 2009)

Legend:
Cyclin D1 - CDK4 = Cyclin D1 - CDK4 (Homo sapiens, UniProt P11802); test: Cyclin D1 - CDK4 kinase inhibition assay; assay type: biochemical; conditions: [ATP] = 100 μM
Description: (§1) Compounds were tested in cyclin-CDK kinase assays and cytotoxicity assays against human tumour cell lines (72-h MTT assay) as previously described.

Cyclin E - CDK2 = Cyclin E - CDK2 (Homo sapiens, UniProt P24941); test: Cyclin E - CDK2 kinase inhibition assay; assay type: biochemical; conditions: [ATP] = 100 μM
Description: as §1

Cyclin H - CDK7 = Cyclin H - CDK7 (Homo sapiens, UniProt P50613); test: Cyclin H - CDK7 kinase inhibition assay; assay type: biochemical; conditions: [ATP] = 100 μM
Cyclin H - CDK7, sequence (P50613 whole entry): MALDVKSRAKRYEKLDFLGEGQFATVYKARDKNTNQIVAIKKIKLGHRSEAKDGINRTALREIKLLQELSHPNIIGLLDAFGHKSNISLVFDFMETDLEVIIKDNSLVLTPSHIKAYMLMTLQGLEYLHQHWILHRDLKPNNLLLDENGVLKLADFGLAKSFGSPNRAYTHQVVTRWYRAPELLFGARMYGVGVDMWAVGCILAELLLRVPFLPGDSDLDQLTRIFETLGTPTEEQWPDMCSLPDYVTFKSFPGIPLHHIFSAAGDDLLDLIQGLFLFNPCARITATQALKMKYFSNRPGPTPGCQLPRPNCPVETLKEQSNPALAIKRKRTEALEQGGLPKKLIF
Cyclin H - CDK7, sequence (P51946 whole entry partner): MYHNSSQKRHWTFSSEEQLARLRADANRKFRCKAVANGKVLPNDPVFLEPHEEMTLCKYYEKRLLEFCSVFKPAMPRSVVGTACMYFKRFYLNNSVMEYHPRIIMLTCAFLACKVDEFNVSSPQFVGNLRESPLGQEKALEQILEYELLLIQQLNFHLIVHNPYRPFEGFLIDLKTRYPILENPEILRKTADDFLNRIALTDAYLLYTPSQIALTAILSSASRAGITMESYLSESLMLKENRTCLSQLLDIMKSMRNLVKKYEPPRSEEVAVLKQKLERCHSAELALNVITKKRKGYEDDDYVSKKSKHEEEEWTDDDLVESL
Description: as §1

Cyclin A - CDK2 = Cyclin A - CDK2 (Homo sapiens, UniProt P24941); test: Cyclin A - CDK2 kinase inhibition assay; assay type: biochemical; conditions: [ATP] = 100 μM
Description: as §1

Cyclin B - CDK1 = Cyclin B - CDK1 (Homo sapiens, UniProt P06493); test: Cyclin B - CDK1 kinase inhibition assay; assay type: biochemical; conditions: [ATP] = 100 μM
Cyclin B - CDK1, sequence (P06493 whole entry): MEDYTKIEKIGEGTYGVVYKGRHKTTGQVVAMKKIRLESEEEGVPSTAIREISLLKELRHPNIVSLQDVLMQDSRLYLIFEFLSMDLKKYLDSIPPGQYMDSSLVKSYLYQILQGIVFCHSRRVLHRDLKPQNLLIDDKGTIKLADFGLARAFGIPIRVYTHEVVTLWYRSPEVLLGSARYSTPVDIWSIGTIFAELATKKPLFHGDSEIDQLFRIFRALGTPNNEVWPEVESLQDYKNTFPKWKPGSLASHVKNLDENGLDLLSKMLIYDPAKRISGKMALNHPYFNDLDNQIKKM
Cyclin B - CDK1, sequence (P14635 whole entry partner): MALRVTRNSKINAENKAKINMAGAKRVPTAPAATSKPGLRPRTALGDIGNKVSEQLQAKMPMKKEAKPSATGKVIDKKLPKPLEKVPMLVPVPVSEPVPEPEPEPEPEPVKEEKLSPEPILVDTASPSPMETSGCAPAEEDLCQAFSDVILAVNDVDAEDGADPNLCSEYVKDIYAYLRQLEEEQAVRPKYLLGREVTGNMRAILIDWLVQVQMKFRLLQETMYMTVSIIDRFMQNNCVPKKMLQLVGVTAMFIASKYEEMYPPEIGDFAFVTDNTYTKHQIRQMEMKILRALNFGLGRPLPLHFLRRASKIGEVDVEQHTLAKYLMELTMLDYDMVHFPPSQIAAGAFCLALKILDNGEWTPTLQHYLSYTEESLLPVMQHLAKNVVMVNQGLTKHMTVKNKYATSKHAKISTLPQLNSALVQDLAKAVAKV
Description: as §1

A549 = test: 72-h MTT cytotoxicity assay, A549; assay type: cell-based; conditions: A549 human tumour cell line
Description: as §1

Saos-2 = test: 72-h MTT cytotoxicity assay, Saos-2; assay type: cell-based; conditions: Saos-2 human tumour cell line
Description: as §1

Cyclin T - CDK9 = Cyclin T - CDK9 (Homo sapiens, UniProt P50750); test: Cyclin T - CDK9 kinase inhibition assay; assay type: biochemical; conditions: [ATP] = 100 μM
Cyclin T - CDK9, sequence (P50750 whole entry): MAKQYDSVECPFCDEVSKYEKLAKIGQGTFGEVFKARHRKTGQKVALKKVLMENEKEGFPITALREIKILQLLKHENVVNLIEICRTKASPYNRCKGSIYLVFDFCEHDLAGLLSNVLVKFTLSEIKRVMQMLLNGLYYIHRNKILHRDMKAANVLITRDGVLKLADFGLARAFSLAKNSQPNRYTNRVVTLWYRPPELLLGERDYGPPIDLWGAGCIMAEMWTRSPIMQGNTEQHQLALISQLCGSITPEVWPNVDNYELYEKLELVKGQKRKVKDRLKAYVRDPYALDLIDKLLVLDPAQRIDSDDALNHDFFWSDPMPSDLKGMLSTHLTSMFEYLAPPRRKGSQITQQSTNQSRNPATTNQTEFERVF
Cyclin T - CDK9, sequence (O60563 whole entry partner): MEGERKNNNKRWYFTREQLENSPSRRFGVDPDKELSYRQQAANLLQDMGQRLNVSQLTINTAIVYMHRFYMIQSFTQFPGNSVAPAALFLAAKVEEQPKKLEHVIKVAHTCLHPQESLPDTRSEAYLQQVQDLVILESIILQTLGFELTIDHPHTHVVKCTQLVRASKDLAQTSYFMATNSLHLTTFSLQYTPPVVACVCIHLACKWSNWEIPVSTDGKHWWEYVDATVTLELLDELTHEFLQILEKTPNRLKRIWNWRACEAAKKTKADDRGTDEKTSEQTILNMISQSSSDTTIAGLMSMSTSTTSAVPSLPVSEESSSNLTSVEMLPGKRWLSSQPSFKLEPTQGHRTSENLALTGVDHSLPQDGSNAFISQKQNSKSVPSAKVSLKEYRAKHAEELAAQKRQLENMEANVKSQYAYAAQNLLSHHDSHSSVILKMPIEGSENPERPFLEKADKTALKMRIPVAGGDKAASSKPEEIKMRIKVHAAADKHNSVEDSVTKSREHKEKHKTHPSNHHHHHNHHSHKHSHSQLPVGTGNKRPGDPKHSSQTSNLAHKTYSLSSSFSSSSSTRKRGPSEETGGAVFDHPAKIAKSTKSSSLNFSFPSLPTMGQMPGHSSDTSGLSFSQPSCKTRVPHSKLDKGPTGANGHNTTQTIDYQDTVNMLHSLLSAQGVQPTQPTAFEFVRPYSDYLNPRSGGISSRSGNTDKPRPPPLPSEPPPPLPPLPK
Description: as §1

HT29 = test: 72-h MTT cytotoxicity assay, HT29; assay type: cell-based; conditions: HT-29, HT29 human tumour cell line
Description: as §1

Cyclin D1 - CDK4, sequence (P11802 whole entry): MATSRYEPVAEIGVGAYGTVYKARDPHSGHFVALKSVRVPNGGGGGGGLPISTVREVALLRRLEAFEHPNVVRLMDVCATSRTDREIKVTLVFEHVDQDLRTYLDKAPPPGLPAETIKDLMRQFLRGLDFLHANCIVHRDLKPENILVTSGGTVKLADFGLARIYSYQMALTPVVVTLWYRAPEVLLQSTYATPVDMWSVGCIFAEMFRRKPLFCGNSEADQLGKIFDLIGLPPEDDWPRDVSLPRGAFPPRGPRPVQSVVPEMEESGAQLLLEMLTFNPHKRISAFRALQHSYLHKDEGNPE
Cyclin D1 - CDK4, sequence (P24385 whole entry partner): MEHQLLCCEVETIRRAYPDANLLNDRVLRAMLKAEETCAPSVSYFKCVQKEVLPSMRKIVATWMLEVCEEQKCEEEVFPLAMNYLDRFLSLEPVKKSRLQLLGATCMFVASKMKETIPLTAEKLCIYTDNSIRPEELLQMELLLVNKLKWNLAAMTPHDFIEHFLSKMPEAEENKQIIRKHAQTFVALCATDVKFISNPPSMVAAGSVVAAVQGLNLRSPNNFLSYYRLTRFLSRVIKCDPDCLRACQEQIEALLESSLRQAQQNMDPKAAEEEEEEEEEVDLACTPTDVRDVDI

| IC50 (Cyclin D1 - CDK4) [µM] | IC50 (Cyclin E - CDK2) [µM] | IC50 (Cyclin H - CDK7) [µM] | IC50 (Cyclin A - CDK2) [µM] | IC50 (Cyclin B - CDK1) [µM] | IC50 (Cyclin T - CDK9) [µM] | Structure (SMILES) | IC50 (A549) [µM] | IC50 (Saos-2) [µM] | IC50 (HT29) [µM] |
| --- | --- | --- | --- | --- | --- | --- | --- | --- | --- |
| 5 ± 4 | 0.048 ± 0.013 | > 20 | 4.3 ± 2.5 | 5.2 ± 1.3 | – | Cc1nc2ccc3cnc(Nc4ccccc4)nc3c2s1 [Cpd 12, (2-Methyl-thiazolo[4,5-h]quinazolin-8-yl)-phenyl-amine] | – | – | – |
| 1.1 ± 0.7 | 0.02 ± 0.01 | 0.11 ± 0.03 | 0.002 ± 0.001 | 1.1 ± 0.4 | 0.013 | Cc1nc2c(s1)-c1nc(Nc3cccc(O)c3)ncc1CC2 [Cpd 3, 3-(2-Methyl-4,5-dihydro-thiazolo[4,5-h]quinazolin-8-ylamino)-phenol] | 2.5 ± 1.2 | 2.3 ± 1.8 | 9.4 ± 5.6 |
| 3.8 ± 0.6 | 0.05 ± 0.04 | 1.7 ± 0.5 | 0.56 ± 0.04 | 1 ± 0.2 | 0.008 | Cc1nc2c(s1)-c1nc(Nc3cccc([N+](=O)[O-])c3)ncc1CC2 [Cpd 1, (2-Methyl-4,5-dihydro-thiazolo[4,5-h]quinazolin-8-yl)-(3-nitro-phenyl)-amine] | 0.68 | 1.2 ± 0.7 | 1.4 ± 0.3 |
| 0.61 ± 0.09 | 0.0007 | 2.5 ± 1 | 0.92 ± 0.47 | 1.9 ± 0.7 | 0.36 ± 0.14 | Nc1nc2c(s1)-c1nc(Nc3ccccc3)ncc1CC2 [Cpd 13, N^8-Phenyl-4,5-dihydro-thiazolo[4,5-h]quinazoline-2,8-diamine] | – | – | – |
| > 100 | 0.4 ± 0.1 | 2.2 ± 0.5 | 0.91 ± 0.59 | 45 ± 25 | 0.52 ± 0.06 | Cc1nc2c(s1)-c1nc(Nc3ccc(N4CCOCC4)cc3)ncc1CC2 [Cpd 4, (2-Methyl-4,5-dihydro-thiazolo[4,5-h]quinazolin-8-yl)-(4-morpholin-4-yl-phenyl)-amine] | 3.5 ± 1.4 | 5 ± 0.8 | 2.1 ± 2 |
| > 80 | 1.18 ± 0.03 | 3.9 ± 1.4 | 14 ± 6 | 8 ± 2 | 39 ± 19 | Cc1nc2c(s1)-c1nc(N(C)c3cccc([N+](=O)[O-])c3)ncc1CC2 [Cpd 9, Methyl-(2-methyl-4,5-dihydro-thiazolo[4,5-h]quinazolin-8-yl)-(3-nitro-phenyl)-amine] | > 20 | > 20 | > 20 |
| 0.075 | 0.049 ± 0.002 | 2.8 ± 0.6 | 0.014 ± 0.006 | 0.058 ± 0.046 | 4.1 ± 1.7 | Cc1nc2c(s1)-c1nc(Nc3ccc(Cl)nc3)ncc1CC2 [Cpd 7, (6-Chloro-pyridin-3-yl)-(2-methyl-4,5-dihydro-thiazolo[4,5-h]quinazolin-8-yl)-amine] | 3.3 ± 0.3 | 4.9 ± 3.4 | 4 ± 0.1 |
| 1.68 ± 0.04 | 0.001 ± 0.001 | > 20 | 1.7 | 2.2 ± 0.7 | – | Cc1nc2c(s1)-c1nc(Nc3ccccc3)ncc1CC2 [Cpd 11, (2-Methyl-4,5-dihydro-thiazolo[4,5-h]quinazolin-8-yl)-phenyl-amine] | – | – | – |
| 0.25 ± 0.12 | 0.001 ± 0.001 | – | 0.022 ± 0.01 | 0.054 ± 0.016 | – | Nc1nc2c(s1)-c1nc(Nc3cccc([N+](=O)[O-])c3)ncc1CC2 [Cpd 14, N^8-(3-Nitro-phenyl)-4,5-dihydro-thiazolo[4,5-h]quinazoline-2,8-diamine] | – | – | – |
| 0.22 ± 0.19 | 0.089 ± 0.016 | 2.3 ± 0.4 | 0.014 ± 0.012 | 0.23 ± 0.19 | 3.3 ± 1.6 | COc1ccc(Nc2ncc3c(n2)-c2sc(C)nc2CC3)cn1 [Cpd 8, (6-Methoxy-pyridin-3-yl)-(2-methyl-4,5-dihydro-thiazolo[4,5-h]quinazolin-8-yl)-amine] | 6 ± 5.1 | 5 ± 2.7 | 4.7 ± 3.8 |
| 0.07 ± 0.02 | 0.021 ± 0.001 | 0.13 ± 0.03 | 0.058 ± 0.007 | 7.5 ± 6.3 | 2.1 ± 0.7 | Cc1nc2c(s1)-c1nc(Nc3ccc(N(C)C)cc3)ncc1CC2 [Cpd 6, N,N-Dimethyl-N′-(2-methyl-4,5-dihydro-thiazolo[4,5-h]quinazolin-8-yl)-benzene-1,4-diamine] | 8 ± 4 | 5.3 ± 1.9 | 3.6 ± 1 |
| 9.2 ± 1.3 | 0.4 ± 0.1 | > 100 | 4.2 ± 0.9 | 2.8 ± 0.7 | 6.1 | Cc1nc2c(s1)-c1nc(Nc3ccc(C(F)(F)F)cc3)ncc1CC2 [Cpd 2, (2-Methyl-4,5-dihydro-thiazolo[4,5-h]quinazolin-8-yl)-(4-trifluoromethyl-phenyl)-amine] | 2.8 ± 1 | 4.4 ± 1.8 | 7.1 ± 1.3 |
| 1 | 0.002 ± 0.001 | 0.64 ± 0.23 | 0.009 ± 0.003 | 0.6 ± 0.12 | 1.6 ± 0.8 | Cc1nc2c(s1)-c1nc(Nc3ccc(O)cc3)ncc1CC2 [Cpd 5, 4-(2-Methyl-4,5-dihydro-thiazolo[4,5-h]quinazolin-8-ylamino)-phenol] | 4.2 ± 1.2 | 6.6 ± 5.8 | 9.9 ± 1.2 |

| Structure (SMILES) | IC50 (Cyclin D1 - CDK4) [µM] | IC50 (Cyclin E - CDK2) [µM] | IC50 (Cyclin H - CDK7) [µM] | IC50 (Cyclin A - CDK2) [µM] | IC50 (Cyclin B - CDK1) [µM] | IC50 (Cyclin T - CDK9) [µM] | IC50 (A549) [µM] | IC50 (Saos-2) [µM] | IC50 (HT29) [µM] |
| --- | --- | --- | --- | --- | --- | --- | --- | --- | --- |
| Cc1nc2ccc3cnc(N(C)c4cccc([N+](=O)[O-])c4)nc3c2s1 [Cpd 10, Methyl-(2-methyl-thiazolo[4,5-h]quinazolin-8-yl)-(3-nitro-phenyl)-amine] | > 40 | 3.2 ± 0.8 | 44 ± 11 | 47 ± 20 | 22 ± 8 | > 100 | > 40 | > 40 | > 40 |
